Measured values as given in patent US10112929B2, “Lactams as inhibitors of rock” (BRISTOL-MYERS SQUIBB COMPANY, priority 2015, dated 2018).
pIC50: −log10 of the molar value.

Biological target: ROCK2 (Homo sapiens (Human), UniProt O75116)
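Also: rho kinase enzyme reaction halted with EDTA, phospho- and non-phospho peptide separated for read-out, kinase activity inhibition derived across a dose-response series, DMSO under 2%.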

Sequence of ROCK2 (O75116 whole entry, species assumed): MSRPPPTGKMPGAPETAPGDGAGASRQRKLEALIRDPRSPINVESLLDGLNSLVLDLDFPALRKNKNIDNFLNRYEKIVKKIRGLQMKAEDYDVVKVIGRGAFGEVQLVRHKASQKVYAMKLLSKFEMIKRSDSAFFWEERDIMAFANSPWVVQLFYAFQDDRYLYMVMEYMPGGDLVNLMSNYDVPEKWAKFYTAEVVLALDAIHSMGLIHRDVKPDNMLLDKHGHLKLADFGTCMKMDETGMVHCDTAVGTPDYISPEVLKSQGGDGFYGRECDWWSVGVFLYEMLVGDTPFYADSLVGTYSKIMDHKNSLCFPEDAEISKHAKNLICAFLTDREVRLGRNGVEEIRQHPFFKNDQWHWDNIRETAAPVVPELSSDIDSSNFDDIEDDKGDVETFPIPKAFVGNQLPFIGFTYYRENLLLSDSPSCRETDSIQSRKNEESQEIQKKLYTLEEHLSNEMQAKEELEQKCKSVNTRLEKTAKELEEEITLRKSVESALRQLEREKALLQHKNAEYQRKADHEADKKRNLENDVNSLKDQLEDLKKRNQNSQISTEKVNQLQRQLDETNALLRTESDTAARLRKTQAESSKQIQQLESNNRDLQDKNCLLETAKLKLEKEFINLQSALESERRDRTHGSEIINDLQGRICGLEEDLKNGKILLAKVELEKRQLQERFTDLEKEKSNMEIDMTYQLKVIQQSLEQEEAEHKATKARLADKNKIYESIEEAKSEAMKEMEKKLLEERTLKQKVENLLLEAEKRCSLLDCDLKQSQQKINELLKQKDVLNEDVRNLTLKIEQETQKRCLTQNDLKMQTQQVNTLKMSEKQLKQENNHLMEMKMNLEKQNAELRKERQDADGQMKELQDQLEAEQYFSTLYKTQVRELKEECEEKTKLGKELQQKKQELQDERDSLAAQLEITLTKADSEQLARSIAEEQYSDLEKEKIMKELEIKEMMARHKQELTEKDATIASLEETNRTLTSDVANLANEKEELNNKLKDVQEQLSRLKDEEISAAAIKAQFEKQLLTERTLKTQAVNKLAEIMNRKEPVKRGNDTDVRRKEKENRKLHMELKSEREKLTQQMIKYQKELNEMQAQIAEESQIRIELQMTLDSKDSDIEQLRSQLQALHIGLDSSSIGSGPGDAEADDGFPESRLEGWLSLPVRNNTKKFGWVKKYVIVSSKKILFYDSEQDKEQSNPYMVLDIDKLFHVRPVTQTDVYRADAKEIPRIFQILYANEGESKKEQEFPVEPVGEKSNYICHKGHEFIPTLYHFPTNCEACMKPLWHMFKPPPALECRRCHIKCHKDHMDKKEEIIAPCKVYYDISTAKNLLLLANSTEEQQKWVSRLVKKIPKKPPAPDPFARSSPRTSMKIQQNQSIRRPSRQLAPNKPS

SMILES	pIC50
COc1cccc(NC2CCN(c3cc(F)c(-c4cn[nH]c4)c(F)c3)C2=O)c1 (single isomer, unassigned) [Example 312, 1-(3,5-difluoro-4-(1H-pyrazol-4-yl)phenyl)-3-((3-methoxyphenyl)amino)pyrrolidin-2-one]	> 8.00
COc1cc(NC2CCN(c3ccc(-c4cn[nH]c4)c(C#N)c3)C2=O)ccc1F (single isomer, unassigned) [Example 380, 5-(3-((4-fluoro-3-methoxyphenyl)amino)-2-oxopyrrolidin-1-yl)-2-(1H-pyrazol-4-yl)benzonitrile]	5.66 to 7.00
COc1cc(NC2CCN(c3ccc(-c4cn[nH]c4)c(OC)n3)C2=O)ccc1F (single isomer, unassigned) [Example 208, 3-((4-fluoro-3-methoxyphenyl)amino)-1-(6-methoxy-5-(1H-pyrazol-4-yl)pyridin-2-yl)pyrrolidin-2-one]	> 8.00
Cc1nc(N2CCC(Nc3cccc(OC(F)F)c3)C2=O)ccc1-c1cn[nH]c1 (single isomer, unassigned) [Example 202, 3-((3-(difluoromethoxy)phenyl)amino)-1-(6-methyl-5-(1H-pyrazol-4-yl)pyridin-2-yl)pyrrolidin-2-one]	7.00 to 8.00
CCc1cc(N2CCC(Nc3cccc(OC)c3)C2=O)ncc1-c1cn[nH]c1 (single isomer, unassigned) [Example 204, 1-(4-ethyl-5-(1H-pyrazol-4-yl)pyridin-2-yl)-3-((3-methoxyphenyl)amino) pyrrolidin-2-one]	5.66 to 7.00
COc1ccc(NC2CCN(c3ccc(-c4cn[nH]c4)c(OC)c3)C2=O)c(F)c1 (single isomer, unassigned) [Example 153, 3-((2-fluoro-4-methoxyphenyl)amino)-1-(3-methoxy-4-(1H-pyrazol-4-yl)phenyl) pyrrolidin-2-one]	5.66 to 7.00
COc1cccc(NC2CCN(c3ccc(-c4ccnc(N)n4)cc3)C2=O)c1 (single isomer, unassigned) [Example 79, 1-(4-(2-aminopyrimidin-4-yl)phenyl)-3-((3-methoxyphenyl)amino)pyrrolidin-2-one]	7.00 to 8.00
COc1ccc(N[C@@H]2CCN(c3ccc(-c4cn[nH]c4)cc3)C2=O)c(OC)c1 [Example 395, (R)-1-(4-(1H-pyrazol-4-yl)phenyl)-3-((2,4-dimethoxyphenyl)amino)pyrrolidin-2-one]	5.66 to 7.00
COc1cc(NC2CCN(c3ccc(-c4cn[nH]c4)c(OC(F)F)c3)C2=O)ccc1F (single isomer, unassigned) [Example 107, 1-[3-(difluoromethoxy)-4-(1H-pyrazol-4-yl)phenyl]-3-[(4-fluoro-3-methoxyphenyl)amino]pyrrolidin-2-one]	7.00 to 8.00
COc1cccc(NC2CCN(c3ccc(-c4cn[nH]c4)cc3F)C2=O)c1 (single isomer, unassigned) [Example 329, 1-(2-fluoro-4-(1H-pyrazol-4-yl)phenyl)-3-((3-methoxyphenyl)amino)pyrrolidin-2-one]	7.00 to 8.00
CNc1nc(N2CCC(Nc3cccc(OC)c3)C2=O)ccc1-c1cn[nH]c1 (single isomer, unassigned) [Example 254, 3-((3-methoxyphenyl)amino)-1-(6-(methylamino)-5-(1H-pyrazol-4-yl)pyridin-2-yl)pyrrolidin-2-one]	7.00 to 8.00
COc1ccc(F)c(NC2CCN(c3ccc(-c4cn[nH]c4)cn3)C2=O)c1 (single isomer, unassigned) [Example 304, 1-(5-(1H-pyrazol-4-yl)pyridin-2-yl)-3-((2-fluoro-5-methoxyphenyl)amino)pyrrolidin-2-one]	7.00 to 8.00
COc1cc(NC2CCN(c3ccc(-c4cn[nH]c4)c(C)n3)C2=O)ccc1F (single isomer, unassigned) [Example 195, 3-((4-fluoro-3-methoxyphenyl)amino)-1-(6-methyl-5-(1H-pyrazol-4-yl)pyridin-2-yl)pyrrolidin-2-one]	7.00 to 8.00
COc1cccc(NC2CCN(c3ccc(-c4cn[nH]c4)cc3Cl)C2=O)c1 (single isomer, unassigned) [Example 167, 1-(2-chloro-4-(1H-pyrazo1-4-yl)phenyl)-3 ((3-methoxyphenyl)amino)pyrrolidin-2-one]	5.66 to 7.00
COc1cc(NC2CCN(c3ccc(-c4cn[nH]c4)cc3F)C2=O)ccc1F (single isomer, unassigned) [Example 331, 3-((4-fluoro-3-methoxyphenyl)amino)-1-(2-fluoro-4-(1H-pyrazol-4-yl)phenyl) pyrrolidin-2-one]	7.00 to 8.00
COc1cccc(NC2CCN(c3ccc(-c4cn[nH]c4)c(F)c3)C2=O)c1 (single isomer, unassigned) [Example 46, 1-(3-fluoro-4-(1H-pyrazol-4-yl)phenyl)-3-((3-methoxyphenyl)amino)pyrrolidin-2-one]	> 8.00
COc1cc(F)cc(NC2CCN(c3ccc(-c4cn[nH]c4)cc3F)C2=O)c1 (single isomer, unassigned) [Example 339, 1-(2-fluoro-4-(1H-pyrazol-4-yl)phenyl)-3-((3-fluoro-5-methoxyphenyl)amino) pyrrolidin-2-one]	7.00 to 8.00

SMILES	pIC50
COc1ccc(NC2CCN(c3ccc(-c4cn[nH]c4)c(OC)c3)C2=O)cc1F (single isomer, unassigned) [Example 142, 3-((3-fluoro-4-methoxyphenyl)amino)-1-(3-methoxy-4-(1H-pyrazol-4-yl)phenyl) pyrrolidin-2-one]	5.66 to 7.00
COc1cccc(NC2CCN(c3ncc(-c4cn[nH]c4)cc3F)C2=O)c1 (single isomer, unassigned) [Example 358, 1-(3-fluoro-5-(1H-pyrazol-4-yl)pyridin-2-yl)-3-((3-methoxyphenyl)amino) pyrrolidin-2-one]	5.66 to 7.00
COc1cccc(NC2CCN(c3ccc(-c4cn[nH]c4)nc3)C2=O)c1 (single isomer, unassigned) [Example 298, 1-(6-(1H-pyrazol-4-yl)pyridin-3-yl)-3-((3-methoxyphenyl)amino)pyrrolidin-2-one]	7.00 to 8.00
COc1cccc(NC2CCN(c3cc(F)c(-c4cn[nH]c4)cc3F)C2=O)c1 (single isomer, unassigned) [Example 354, 1-(2,5-difluoro-4-(1H-pyrazol-4-yl)phenyl)-3-((3-methoxyphenyl)amino)pyrrolidin-2-one]	7.00 to 8.00
COc1cc(F)cc(NC2CCN(c3ccc(-c4cn[nH]c4)c(F)c3)C2=O)c1 (single isomer, unassigned) [Example 50, 1-(3-fluoro-4-(1 H-pyrazol-4-yl)phenyl)-3-((3-fluoro-5-methoxyphenyl)amino)pyrrolidin-2-one]	> 8.00
COc1ccc(F)c(NC2CCN(c3ccc(-c4cn[nH]c4)c(OC)c3)C2=O)c1 (single isomer, unassigned) [Example 149, 3-((2-fluoro-5-methoxyphenyl)amino)-1-(3-methoxy-4-(1H-pyrazol-4-yl)phenyl) pyrrolidin-2-one]	7.00 to 8.00
O=C1C(Nc2cccc(OC(F)F)c2)CCN1c1ccc(-c2cn[nH]c2)c(F)c1 (single isomer, unassigned) [Example 356, 3-((3-(difluoromethoxy)phenyl)amino)-1-(3-fluoro-4-(1H-pyrazol-4-yl)phenyl) pyrrolidin-2-one]	7.00 to 8.00
COc1cccc(NC2CCN(c3ccc(-c4cn[nH]c4)cc3)C2=O)c1C (single isomer, unassigned) [Example 326, 1-(4-(1H-pyrazol-4-yl)phenyl)-3-((3-methoxy-2-methylphenyl)amino) pyrrolidin-2-one]	7.00 to 8.00
COc1cc(NC2CCN(c3ccc(-c4cn[nH]c4)c(OC)c3)C2=O)cc(OC)c1 (single isomer, unassigned) [Example 140, 3-((3,5-dimethoxyphenyl)amino)-1-(3-methoxy-4-(1H-pyrazol-4-yl)phenyl) pyrrolidin-2-one]	5.66 to 7.00
COc1ccc(F)c(NC2CCN(c3ccc(-c4cn[nH]c4)cc3)C2=O)c1 (single isomer, unassigned) [Example 240, 1-(4-(1H-pyrazol-4-yl)phenyl)-3-((2-fluoro-5-methoxyphenyl)amino)pyrrolidin-2-one]	7.00 to 8.00
COc1cc(F)cc(NC2CCN(c3ccc(-c4cn[nH]c4)c(Cl)c3)C2=O)c1 (single isomer, unassigned) [Example 159, 1-(3-chloro-4-(1H-pyrazol-4-yl)phenyl)-3 ((3-fluoro-5-methoxyphenyl)amino) pyrrolidin-2-one]	5.66 to 7.00
COc1cc(NC2CCN(c3ccc(-c4cn[nH]c4)c(C(F)(F)F)c3)C2=O)ccc1F (single isomer, unassigned) [Example 372, 1-(4-(1H-pyrazol-4-yl)-3-(trifluoromethyl)phenyl)-3-((4-fluoro-3-methoxyphenyl)amino)pyrrolidin-2-one]	5.66 to 7.00
COc1cc(NC2CCN(c3ccc(-c4cn[nH]c4)cn3)C2=O)ccc1F (single isomer, unassigned) [Example 84, 1-(5-(1H-pyrazol-4-yl)pyridin-2-yl)-3-((4-fluoro-3-methoxyphenyl)amino)pyrrolidin-2-one]	7.00 to 8.00
COc1cc(NC2CCN(c3ccc(-c4cn[nH]c4)c(F)c3F)C2=O)ccc1F (single isomer, unassigned) [Example 308, 1-(2,3-difluoro-4-(1H-pyrazol-4-yl)phenyl)-3-((4-fluoro-3-methoxyphenyl)amino)pyrrolidin-2-one]	7.00 to 8.00
COc1nc(N2CCC(Nc3cccc(OC(F)F)c3)C2=O)ccc1-c1cn[nH]c1 (single isomer, unassigned) [Example 221, 3-((3-(difluoromethoxy)phenyl)amino)-1-(6-methoxy-5-(1H-pyrazol-4-yl)pyridin-2-yl)pyrrolidin-2-one]	> 8.00
COc1cc(NC2CCN(c3ccc(-c4cn[nH]c4)cc3Cl)C2=O)ccc1F (single isomer, unassigned) [Example 163, 1-(2-chloro-4-(1H-pyrazol-4-yl)phenyl)-3-((4-fluoro-3-methoxyphenyl)amino) pyrrolidin-2-one]	5.66 to 7.00
COc1cccc(NC2CCN(c3ccc(-c4cn[nH]c4)c(OC)n3)C2=O)c1 (single isomer, unassigned) [Example 197, 1-(6-methoxy-5-(1H-pyrazol-4-yl)pyridin-2-yl)-3-((3-methoxyphenyl)amino) pyrrolidin-2-one]	> 8.00
